These results are taken from patent US20260191861A1, “INFLAMMASOME AND VEGF INHIBITION FOR RETINAL VASCULAR DISEASES” (University of Virginia Patent Foundation, priority 2022, published 2026).

“Also recorded” adds a separate entry of the source.

Assay [1] relates to participants with diabetic macular edema. In words: Visual acuity (VALS) compared with synthetic controls from the DRCR.net Protocol T study (IPTW, propensity score matching, GEE). The class given is in vivo, human. The text has this: The second analysis included participants from the lamivudine versus placebo trial, along with a synthetic comparator created using data from the DRCR.net Protocol T study. The source of the data is DRCR.net (2018) A Comparative Effectiveness Study of Intravitreal Aflibercept, Bevacizumab and Ranibizumab for Diabetic Macular Edema, retrieved from https://public.jaeb.org/drcrnet/stdy/download/206. The analyses, content, and conclusions presented herein are solely the responsibility of the authors and have not been reviewed or approved by DRCR.net.
Inclusion criteria for participants from the DRCR.net Protocol T study were based on their similarity to the lamivudine versus placebo trial design. This involved selecting only patients with type 2 diabetes, study eyes with a baseline VALS<69, and complete follow-up visual acuity measurements at weeks 4 and 8.
(§1) Propensity score methods were used to select DRCR.net Protocol T study participants similar to lamivudine-treated patients. Inverse probability treatment weights (IPTW) and propensity score matching were used. To estimate the IPTW weights, a multinomial logistic regression was used to estimate propensity scores using important predictors including baseline visual acuity and baseline central subfield thickness along with age, gender, and duration of diabetes. Weights were calculated as the reciprocal of the estimated propensity score of the actual treatment received. Weights were then truncated at the 99th percentile. For the propensity score matched analysis, lamivudine-treated patients were matched to each DRCR.net Protocol T treatment arm (aflibercept, bevacizumab, ranibizumab) and placebo group, separately. Due to the limited sample size for matching within each group, propensity score models included the most important predictors of acuity change including baseline visual acuity, age and duration of diabetes.
(§2) For the IPTW analysis, a mixed-effects weighted model was fit with subject-specific random effects. […] The model's estimates, confidence intervals (CI), and P values were reported for each predictor. Additionally, model-based contrasts were conducted to compare the change in VALS from baseline between lamivudine and the Protocol T treatments.
For each propensity score matched group (e.g., lamivudine-bevacizumab, lamivudine-aflibercept), a mixed effect model was fit estimating the change in visual acuity from baseline. Subject specific random effect was included along with fixed effect predictors: treatment group, baseline VALS, central subfield thickness, eye (left vs right), age, sex, race and type 2 diabetes duration.
(§3) Secondary outcomes included the change in central subfield thickness, the percentage of eyes with an improvement in VALS of 15 or more, the correlation between improvements in visual acuity and central subfield thickness, and systemic and ocular adverse events. Change in central subfield thickness was estimated using mixed-effects models, similar to the VALS analysis. To analyze a VALS improvement of at least 15 letters, logistic regression using generalized estimating equations (GEEs) was specified with an exchangeable correlation matrix. Model-based contrasts were estimated to make pairwise treatment comparisons.

Assay [2] has the same test system. The assay is described as follows: Retinal central subfield thickness by spectral-domain OCT, including synthetic controls from DRCR.net Protocol T. Type of assay: in vivo, human. The following applies: for IPTW mixed-effect model: change in central subfield thickness, Treatment × week [8] estimate / Mixed-effect model: change in central subfield thickness, Treatment × week [8] estimate: interaction term; for IPTW mixed-effect model: change in central subfield thickness from baseline, treatment estimate (ref = Placebo) / Mixed-effect model: change in central subfield thickness from baseline, treatment estimate (ref = Placebo): main effect (week 4); for Mixed-effect model: change in central subfield thickness, Treatment × week [8] estimate / Mixed-effect model: change in central subfield thickness from baseline, treatment estimate (ref = Placebo): unweighted model. The procedure:
as §1, §2, §3
In all consultations, patients underwent tomography with the Spectralis device (Heidelberg) under mydriasis. The acquisition protocol was the 6×6 mm region centered on the fovea. Data analysis from SD-OCT was restricted to the central field (1 mm in diameter) Intravitreous Injection of Anti-VEGF

For assay [3] the test system is unchanged. Particulars: week 8, included DRCR.net Protocol T patients (synthetic controls); cited from earlier work.
Assay [4] has the same test system. The following applies: week 8, synthetic controls of DRCR.net Protocol T; cited from earlier work.
In another assay the test system is caspase-1. The assay is described as follows: Rhegmatogenous retinal detachment (RRD) model: retinal caspase-1 cleavage by immunoblot. Type of assay: in vivo, mouse. The procedure: (§4) All experiments involving animals were approved by the University of Virginia Institutional Animal Care and Use Committee (IACUC) and adhered to the Association for Research in Vision and Ophthalmology (ARVO) Statement for the Use of Animals in Ophthalmic and Vision Research. Animal subjects were male and female mice aged 6 to 10 weeks. Wild type C57BL/6J mice were obtained from the Jackson Laboratory (Bar Harbor, ME, USA). To anesthetize mice for study procedures, ketamine hydrochloride (100 mg/kg; Ft. Dodge Animal Health, Overland Park, KS, USA) and xylazine (10 mg/kg; Phoenix Scientific, St. Joseph, MO, USA) were delivered by intraperitoneal (IP) injection. Pupils were dilated with topical 1% tropicamide and 2.5% phenylephrine (Alcon Laboratories, Ft. Worth, TX, USA).
(§5) RRD model was established by subretinal injection (SRI) of 3 μl 1% carboxymethyl cellulose (CMC; Refresh Liquigel, Allergan, Irvine, CA, USA).
(§6) NRTIs and K-9 were delivered via intraperitoneal (IP) injection in equimolar amounts. […] Kamuvudine K-9 (3-methyl-3TC, MW=273 g/mol) was administered either at a low dose (K-9L; 90 mg/kg daily) or a high dose (K-9H; 60 mg/kg twice daily, equimolar to NRTI doses). IP injection of phosphate buffered saline (PBS) was used as control.
Retinal tissue was extracted and lysed by sonication in radioimmunoprecipitation assay (RIPA) buffer (MilliporeSigma, Darmstadt, Germany). The Pierce BCA Protein Assay Kit (ThermoFisher Scientific, Waltham, MA, USA) was used to determine protein concentrations of interest. Samples were prepared that contained equal concentrations of total protein (10-100 μg). Protein samples were resolved by SDS-PAGE and transferred onto Immobilon-FL PVDF membranes (Millipore, Billerica, MA, USA). Membranes were blocked in Odyssey Blocking Buffer (PBS) for 1 hour at room temperature, and then incubated overnight with primary antibody at 4° C. Across study experiments, the following antibodies were used: anti-mouse caspase-1 (1:1000; AG-20B-0042; AdipoGen Life Sciences, San Diego, CA, USA), and anti-mouse GAPDH (1:1000; 2118; Cell Signaling, Danvers, MA, USA). […]
A general note: Immunoblotting shows a protein as a band on a membrane.

The test system of assay [5] is photoreceptors (TUNEL+ cells in the ONL). The assay is described as follows: RRD model: TUNEL assay of the retinal outer nuclear layer. Type of assay: in vivo, mouse. The protocol: as §4, §5, §6
Retinal cross cryosections at a thickness of 10 μm were stained with TUNEL (TdT-mediated dUTP nick-end labeling) using the In Situ Cell Death Detection Kit (Roche Diagnostics, Indianapolis, IN, USA) according to the manufacturer's′ instructions. The sections were wet-mounted with ProLong anti-fade reagent with DAPI (P36935, ThermoFisher Scientific, Waltham, MA, USA) and visualized using an A1R laser confocal microscope (Nikon, Tokyo, Japan). Fourteen representative sections, including the optic nerve, were used per treatment group. To calculate the number of TUNEL+ cells in the outer nuclear layer (ONL), the retina analysis toolkit of ImageJ (2.1.0; NIH, Bethesda, MD, USA) was used.

Setting [6] is: IPTW model with synthetic controls.
[7] abbreviates: Original (unweighted) model with synthetic controls.
Setting [8] is: day 3 RRD, equimolar IP doses twice daily (K-9H 60 mg/kg, 3TC 50 mg/kg).
The mark [9] stands for this setting: three days after inducing RRD, IP treatment.

For “Aflibercept: inhibitor of vascular endothelial growth factor (VEGF), intravitreous”, the “GEE model: odds ratio of change in VALS from baseline ≥15 (ref = Placebo)” value (“GEE model: odds ratio of change in VALS” below) in assay [1] (IPTW model) amounted to 19.39. Besides, in assay [1] (setting [6]), the “Mixed effect model: change from baseline visual acuity, treatment estimate (ref: Placebo)” value (from here on “Mixed effect model: change”) is 8.42. Also, in assay [1] (IPTW model with synthetic controls, listed as aflibercept), the “Mixed effect model: change” value was 8.4. The “Mixed effect model: change” value in assay [1] (setting [7]) was 8.48. For the same substance, in assay [1] (Original model), the “GEE model: odds ratio of change in VALS” value worked out at 11.15. For the same substance, in assay [2], the “IPTW mixed-effect model: change in central subfield thickness, Treatment × week [8] estimate” value (“IPTW mixed-effect model: change … [8] estimate” for short) is listed as 68.54 μm; the “IPTW mixed-effect model: change in central subfield thickness from baseline, treatment estimate (ref = Placebo)” value was −104.33 μm; the “Mixed-effect model: change in central subfield thickness, Treatment × week [8] estimate” value is 74.83 μm; the “Mixed-effect model: change in central subfield thickness from baseline, treatment estimate (ref = Placebo)” value is on record as −114.55 μm. Moreover, the “percentage of eyes with improvement in VALS of 15 or more” value (shortened to “percentage of eyes with improvement”) in assay [3] is 38%. In addition, the “percentage of eyes with VALS improvement of 15 or more that had minimal change in central subfield thickness (≤50 μm)” value in assay [4] is on record as 42%.

In the case of “Ranibizumab: inhibitor of vascular endothelial growth factor (VEGF), intravitreous”, the “GEE model: odds ratio of change in VALS” value in assay [1] (IPTW model) stood at 19.96. Moreover, the “Mixed effect model: change” value in assay [1] (setting [6]) was 7.12. Also, the “Mixed effect model: change” value in assay [1] (IPTW model with synthetic controls, listed as ranibizumab) is 7.1. In addition, the “Mixed effect model: change” value in assay [1] (setting [7]) is listed as 7.04. Further, the “GEE model: odds ratio of change in VALS” value in assay [1] (Original model) came to 11.14. Besides, in assay [2], the “IPTW mixed-effect model: change … [8] estimate” value was 75 μm; the “IPTW mixed-effect model: change in central subfield thickness from baseline, treatment estimate (ref = Placebo)” value is listed as −113.67 μm; the “Mixed-effect model: change in central subfield thickness, Treatment × week [8] estimate” value is recorded as 85.69 μm; the “Mixed-effect model: change in central subfield thickness from baseline, treatment estimate (ref = Placebo)” value is −122.12 μm. Besides, the “percentage of eyes with improvement” value in assay [3] is 34%. In assay [4], the “percentage of eyes with VALS improvement of 15 or more that had minimal change in central subfield thickness (≤50 μm)” value was 41%.

In the case of “Bevacizumab: inhibitor of vascular endothelial growth factor (VEGF), intravitreous”, the “GEE model: odds ratio of change in VALS” value in assay [1] (IPTW model) was found to be 10.33. Also, the “Mixed effect model: change” value in assay [1] (setting [6]) is listed as 5.32. Besides, the “Mixed effect model: change” value in assay [1] (IPTW model with synthetic controls, listed as bevacizumab) is given as 5.3. Moreover, the “Mixed effect model: change” value in assay [1] (setting [7]) is listed as 5.36. For the same substance, in assay [1] (Original model), the “GEE model: odds ratio of change in VALS” value was 6.15. Besides, in assay [2], the “IPTW mixed-effect model: change … [8] estimate” value is listed as 74.82 μm; the “IPTW mixed-effect model: change in central subfield thickness from baseline, treatment estimate (ref = Placebo)” value was −66.35 μm; the “Mixed-effect model: change in central subfield thickness, Treatment × week [8] estimate” value is reported as 84.87 μm; the “Mixed-effect model: change in central subfield thickness from baseline, treatment estimate (ref = Placebo)” value is −75.55 μm. The “percentage of eyes with improvement” value in assay [3] is listed as 24%. Also, the “percentage of eyes with VALS improvement of 15 or more that had minimal change in central subfield thickness (≤50 μm)” value in assay [4] is listed as 29%.

Turning to 3-methyl-3TC [K-9], the “degree of suppression of caspase-1 activation” value with caspase-1 (setting [8]) came to 84%+1%. Moreover, in the assay with caspase-1 (setting [9]), the “retinal cleaved caspase-1 compared with PBS-treated mice” value is “dose-dependent and complete reduction; also recorded: inhibits RRD-induced caspase-1 cleavage”. Moreover, in assay [5] (setting [8]), the “degree of photoreceptor protection” value is given as 56%+7%. The “number of TUNEL+ cells in the ONL of the retina compared with PBS-treatment” value in assay [5] (setting [9]) was “dose-dependent reduction; also recorded: protects photoreceptors”.
